Experimental findings from paper PMC4704819, “Honey Bee Allatostatins Target Galanin/Somatostatin-Like Receptors and Modulate Learning: A Conserved Function?” (PLoS ONE, 2016) are described below.

For orientation: pEC50 means the EC50 on a negative log10 scale, so that one unit is a factor of ten.

The target of experiment [1] is T1, Apime-ASTA-R (Apis mellifera, UniProt A0A7M7ILT1).
T1 sequence (A0A7M7ILT1 1-361): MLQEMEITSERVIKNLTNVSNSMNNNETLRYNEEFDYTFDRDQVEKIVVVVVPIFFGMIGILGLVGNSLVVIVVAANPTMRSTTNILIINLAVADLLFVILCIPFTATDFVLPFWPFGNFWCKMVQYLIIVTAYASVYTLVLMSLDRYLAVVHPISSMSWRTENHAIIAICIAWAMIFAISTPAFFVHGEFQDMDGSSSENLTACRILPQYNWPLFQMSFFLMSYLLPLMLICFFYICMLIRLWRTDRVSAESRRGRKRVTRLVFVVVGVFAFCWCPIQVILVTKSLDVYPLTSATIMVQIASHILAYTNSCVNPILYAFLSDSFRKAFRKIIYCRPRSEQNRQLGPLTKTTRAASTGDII
In words: Intracellular cAMP reporter assay, HEK293 cells expressing Apime-ASTA-R. The format is cell-based. As for the experimental part:
(§1) For intracellular cAMP measurements, cells were bathed in trypsin EDTA and collected, then suspended in fresh DMEM. Transfections with pRK5-ApimeAstC-R, pRK5-ApimeAstA-R or empty pRK5 vector were carried out in 15 ml Falcon tubes. Transfection medium for HEK293 cells was prepared using the Lipofectamine LTX kit (Invitrogen) with 2.5 ml Opti-MEM® (Gibco), 12.5 μl Plus™ Reagent and 4 μg of ApimeASTC-R (or ApimeASTA-R, or empty) expression construct, and 2 μg of CRE(6x)-Luc plasmid. The luciferase ORF, downstream of six tandem repeats of a cyclic AMP responsive element (CRE), in front of a minimum collate promoter, was used as a reporter gene (this reporter plasmid has been used by others)
We followed a previousy published protocol: HEK293 cells in Dulbecco's Modified Eagles Medium nutrient mixture F12-Ham (DMEM/F12, Sigma–Aldrich) supplemented with 10% heat-inactivated fetal bovine serum (Gibco), 100 IU/ml penicillin, 100 μg/ml streptomycin (Gibco) were maintained in an incubator at 37°C with constant supply of 5% CO2, until they reached 60–80% confluence. Cells were then bathed in trypsin EDTA (Gibco) until rounded. The flask was then tapped to loosen the cells, which were subsequently washed off with 5 ml DMEM/F12. […]
Prior to measuring cAMP, the cell medium was removed by carefully inverting the 96-well plate on filter paper and quickly replaced with 100 μl of DMEM/F12 without phenol red (Invitrogen), but containing 200 μM 3-isobutyl-1-methylxanthine (IBMX, Sigma–Aldrich) to prevent cAMP breakdown, as well as drugs to be tested. […] The 96-well plate was then placed in the dark for 15 min before light emission resulting from luciferase enzymatic activity was recorded. Measurements lasting 0.2 s/well were taken every 55 s for 10 cycles using a FLUOstar Omega microplate reader (BMG Labtech). Results were analyzed by means of the Omega software packages and further processed by Excel and GraphPad Prism softwares. […]
A general note: Reporter assays use an easily measured gene product as a stand-in for the process of interest.

The target of experiment [2] is T2, Apime-ASTC-R (Apis mellifera, UniProt A0A7M7GNE5).
T2 sequence (A0A7M7GNE5 1-423): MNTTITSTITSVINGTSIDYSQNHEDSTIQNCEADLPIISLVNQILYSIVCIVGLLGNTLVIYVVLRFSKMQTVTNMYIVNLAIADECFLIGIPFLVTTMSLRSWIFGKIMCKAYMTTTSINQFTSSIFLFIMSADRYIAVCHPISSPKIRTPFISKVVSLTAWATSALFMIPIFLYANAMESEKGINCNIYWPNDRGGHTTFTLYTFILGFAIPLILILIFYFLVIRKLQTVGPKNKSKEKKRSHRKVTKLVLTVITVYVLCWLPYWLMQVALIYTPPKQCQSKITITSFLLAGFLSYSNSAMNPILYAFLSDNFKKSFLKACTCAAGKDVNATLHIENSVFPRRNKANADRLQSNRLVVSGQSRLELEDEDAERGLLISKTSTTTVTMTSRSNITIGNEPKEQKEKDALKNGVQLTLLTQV
The experiment is described as follows: Intracellular cAMP reporter assay, HEK293 cells expressing Apime-ASTC-R. The format is cell-based. To be noted: Fig 5B, 2 transfections in duplicates or triplicates. As for the experimental part:
as §1
(§2) We followed a previousy published protocol: HEK293 cells in Dulbecco's Modified Eagles Medium nutrient mixture F12-Ham (DMEM/F12, Sigma–Aldrich) supplemented with 10% heat-inactivated fetal bovine serum (Gibco), 100 IU/ml penicillin, 100 μg/ml streptomycin (Gibco) were maintained in an incubator at 37°C with constant supply of 5% CO2, until they reached 60–80% confluence. Cells were then bathed in trypsin EDTA (Gibco) until rounded. The flask was then tapped to loosen the cells, which were subsequently washed off with 5 ml DMEM/F12. The cells were gently centrifuged at 800 rpm for 5 minutes and carefully suspended in fresh DMEM, which was divided in two for transfection with receptor constructs or empty vectors. After 5 min at room temperature, 30 μl LTX was added. After an incubation period of 30 min at room temperature, the DNA/LTX mix was added to the cells. The cells were then aliquoted (100 μl per well) into a clear bottom 96-well plate (Greiner bio-one #655090) and incubated overnight (37°C, 5% CO2).
(§3) Prior to measuring cAMP, the cell medium was removed by carefully inverting the 96-well plate on filter paper and quickly replaced with 100 μl of DMEM/F12 without phenol red (Invitrogen), but containing 200 μM 3-isobutyl-1-methylxanthine (IBMX, Sigma–Aldrich) to prevent cAMP breakdown, as well as drugs to be tested. In each experiment, some wells were used to measure basal levels of cAMP in the cells (negative control), while others were used to measure cAMP levels in cells exposed to 10 μM forskolin analogue (NKH-477, Sigma Aldrich, positive control). […] All cells were incubated at 37°C and 5% CO2 for 3–4 h to allow transcription of the reporter gene before 100 μl of freshly reconstituted Steadylite Plus™ substrate (PerkinElmer) was added to each well. The 96-well plate was then placed in the dark for 15 min before light emission resulting from luciferase enzymatic activity was recorded. Measurements lasting 0.2 s/well were taken every 55 s for 10 cycles using a FLUOstar Omega microplate reader (BMG Labtech). Results were analyzed by means of the Omega software packages and further processed by Excel and GraphPad Prism softwares. In order to facilitate comparisons across experiments, bioluminescence levels are expressed relative to those in mock-transfected cells (transfected with the vector devoid of the receptor sequence) untreated with NKH-477, which were arbitrarily set at 100.
(§4) To test this prediction, we expressed the two receptors separately in HEK293 cells together with the luciferase reporter gene, downstream of the cAMP response element, CRE, but without exogenous G proteins.

Experiment [3] relates to mock-transfected HEK293 cells. In words: Intracellular cAMP reporter assay, mock-transfected HEK293 cells (empty vector). The format is cell-based, human. The procedure: as §1, §2, §3, §4
Experiment [4] concerns the target T1, Apime-ASTA-R. The experiment is described as follows: Intracellular calcium measurement, HEK293 cells expressing Apime-ASTA-R with Gαqi9 chimeric G protein. The experiment is classed as cell-based. As for the experimental part: (§5) This vector contains an ATG initiation codon in phase with a mammalian signal peptide sequence of metabotropic glutamate receptor 5 to address receptor protein to the cell membrane, with a hemagglutinin sequence (TAG HA), and MluI and HindIII restriction sites used for cloning. The coding regions of the genes of interest were PCR amplified from cDNA template. After extraction from whole brains, 1 μg of total RNA was reverse-transcribed with random primers. […] PCR reactions included: 30s at 98°C, then 30 cycles of 10s at 98°C, 30s at 60°C, 1 min at 72°C and finally, 5 minutes at 72°C. Cloning required several amplification and digestion steps to insert the full cDNA sequences in the vector.
In all cases, 2 μg of plasmid DNA encoding the Gαqi9 chimeric G protein was included to enable artificial coupling of the receptors to phospholipase C. Electroporation (250 V, 800 μF, Biorad GenePulser X-cell) was performed in a total volume of 300 μl of electroporation buffer (50 mM K2HPO4, 20 mM CH3COOK, 20 mM KOH, 26.5 mM MgSO4, pH 7.4). After electroporation, cells were resuspended in 10 ml of culture medium and split (100 μl/well) into polyornithine-coated (Sigma #P3655), black-walled, clear bottom 96-well plates (Greiner bio-one #655090) and grown for a further 48 h prior to analyzing receptor properties. All products used for cell culture were purchased from Invitrogen Life Technologies.
Cells were washed with freshly prepared 20 mM Hepes, 1 mM MgSO4, 3.3 mM Na2CO3, 1.3 mM CaCl2, 0.1% BSA, 2.5 mM probenecid in 1X Hank's balanced salt solution (Gibco #14185), pH7.4 buffer and loaded with 1 μM Ca^2+-sensitive fluorescent dye Fluo-4 AM (Invitrogen # F14202) for 1 h at 37°C. Cells were washed once and incubated with 50 μl of buffer. A plate was prepared with the various concentrations of peptides to be tested, and 50 μl of 2X concentrated-drug solution was added in each well after 20 s of recording. Fluorescence signals (excitation 485 nm, emission 525 nm) were measured by using the fluorescence microplate reader Flexstation (Molecular Devices) at sampling intervals of 1.5 s for 60 s. All represented data correspond to means ± standard deviation (SD) from experiments performed in triplicate.
This method allows detecting ligand-induced activation of the receptor by measuring the release of intracellular calcium.

The target in experiment [5] is T2, Apime-ASTC-R. The experiment is described as follows: Intracellular calcium measurement, HEK293 cells expressing Apime-ASTC-R with Gαqi9 chimeric G protein. To be noted: concentrations up to 0.1mM; data not shown. The format is cell-based. The procedure:
as §5
In all cases, 2 μg of plasmid DNA encoding the Gαqi9 chimeric G protein was included to enable artificial coupling of the receptors to phospholipase C. […]
Cells were washed with freshly prepared 20 mM Hepes, 1 mM MgSO4, 3.3 mM Na2CO3, 1.3 mM CaCl2, 0.1% BSA, 2.5 mM probenecid in 1X Hank's balanced salt solution (Gibco #14185), pH7.4 buffer and loaded with 1 μM Ca^2+-sensitive fluorescent dye Fluo-4 AM (Invitrogen # F14202) for 1 h at 37°C. […] Fluorescence signals (excitation 485 nm, emission 525 nm) were measured by using the fluorescence microplate reader Flexstation (Molecular Devices) at sampling intervals of 1.5 s for 60 s. […]
(Calcium flux is commonly read through the fluorescence of an indicator in the cells.)

pEC50: −log10 of the molar value. *1 amine or outer side, *2 acyl side, *3 side chain or, on linkers, in order; H or OH if unused. Where a SMILES comes first, the peptide text is derived from it. Where no end group is shown, it is not given here. Side-chain parts run from the residue outwards. [ ]: non-standard residue; d: D form. The star is where a group is joined. Ethylenediamine = C(CN[*:2])N[*:1]; Hyp = O=C(O)[C@@H]1C[C@@H](O)CN1; Phg = N[C@H](C(=O)O)c1ccccc1; CO = O=C([*:1])[*:2]; Bn = c1ccc(C*)cc1

For the compound `C=C[C@@]1(C)CC(=O)[C@]2(O)[C@@]3(C)[C@@H](O)CCC(C)(C)[C@@H]3[C@H](OC(=O)CCN(C)C)[C@H](OC(C)=O)[C@@]2(C)O1.Cl` [NKH-477, reference compound], the “ability to increase bioluminescence versus mock-transfected cells, in words” value at Apime-ASTA-R [1] (Fig 5B, 2 transfections in duplicates or triplicates) is given as “reduced ability to increase bioluminescence levels”; on Apime-ASTC-R [2] it was “reduced ability to increase bioluminescence levels”. Moreover, the “increase in cAMP levels (bioluminescence)” value was determined as 1.59 fold at Apime-ASTA-R [1] (same concentrations as in mock cells (10 nM to 10 μM), CRE-luciferase, IBMX, Fig 5B, 2 transfections in duplicates or triplicates) and 1.24 fold at Apime-ASTC-R [2] (same concentrations as in mock cells (10 nM to 10 μM), CRE-luciferase, IBMX). Also, in experiment [3] (10 nM to 10 μM), the “increase in bioluminescence (cAMP), in words” value is “increased bioluminescence in a dose-dependent manner”. In experiment [3] (10 μM, CRE-luciferase, 200 μM IBMX, Fig 5B, 2 transfections in duplicates or triplicates), the “increase in bioluminescence (cAMP) compared to baseline” value stood at 2.5 fold.

For `NCCCC[C@@H]1NC(=O)[C@@H](Cc2c[nH]c3ccccc23)NC(=O)[C@H](c2ccccc2)NC(=O)[C@@H]2C[C@@H](OC(=O)NCCN)CN2C(=O)[C@H](Cc2ccccc2)NC(=O)[C@H](Cc2ccc(OCc3ccccc3)cc2)NC1=O` [SOM230, reference compound] (cyclo([Hyp]([CO-Ethylenediamine])[Phg][dW]KY(Bn)F); ring closure inferred), the calcium release entry at Apime-ASTA-R [4] (concentrations up to 0.1mM, data not shown) was “No calcium release was detected”; on Apime-ASTC-R [5] it was “No calcium release was detected”.

On to GRQPYSFGL-NH2 [Apime-ASTA], for which the negative-log EC50 (pEC50) on Apime-ASTA-R [4] (HEK293, Gαqi9, Fluo-4 AM, Flexstation (ex 485 nm, em 525 nm), pH 7.4, experiments in triplicate, read-out: EC50, calcium release) was 8.70; at Apime-ASTA-R [1] (CRE-luciferase, 200 μM IBMX, no exogenous G protein, 37°C 3–4 h, normalized to mock-transfected cells, 3 independent transfections in triplicate, Fig 5C, read-out: mean EC50, increase in cAMP levels), 6.99.
